Data: the NIST ThermoML archive (doi:10.1021/je800026p)

Test: xn = mol fraction of the nth substance listed
Settings: 101 kPa, Liquid; for speed of sound: Sing-around technique in a fixed-path interferometer; for mass density: Vibrating tube method

CCCCCCOCCOCCO [2-(2-hexyloxyethoxy)ethanol] + CCCCN(CCCC)CCCC
Settings	mass density, 288.15 K [kg/m3]	mass density, 293.15 K [kg/m3]	mass density, 298.15 K [kg/m3]	mass density, 303.15 K [kg/m3]	mass density, 308.15 K [kg/m3]	speed of sound, 288.15 K [m/s]	speed of sound, 293.15 K [m/s]	speed of sound, 298.15 K [m/s]	speed of sound, 303.15 K [m/s]	speed of sound, 308.15 K [m/s]
x1 = 0.1168	797.427	793.696	789.759	785.812	782.055	1294	1274.9	1256	1237.3	1219
x1 = 0.1659	804.49	800.716	796.756	792.8	788.975	1298.2	1279.2	1260.3	1241.7	1223.4
x1 = 0.2092	810.815	806.993	803.027	799.078	795.2	1302.1	1283.1	1264.3	1245.8	1227.5
x1 = 0.2589	818.158	814.291	810.334	806.371	802.458	1306.8	1287.9	1269.2	1250.8	1232.5
x1 = 0.3155	826.596	822.69	818.738	814.795	810.825	1312.6	1293.8	1275.2	1256.8	1238.6
x1 = 0.3564	832.755	828.829	824.867	820.924	816.944	1316.9	1298.2	1279.7	1261.4	1243.2
x1 = 0.383	836.791	832.842	828.881	824.93	820.957	1319.8	1301.2	1282.7	1264.5	1246.4
x1 = 0.4544	847.683	843.729	839.761	835.783	831.821	1328	1309.5	1291.2	1273.2	1255.2
x1 = 0.5108	856.418	852.463	848.467	844.479	840.528	1334.9	1316.5	1298.3	1280.4	1262.6
x1 = 0.5568	863.63	859.691	855.668	851.665	847.701	1340.7	1322.4	1304.3	1286.5	1268.8
x1 = 0.6107	872.206	868.299	864.217	860.198	856.228	1347.7	1329.6	1311.6	1294	1276.4
x1 = 0.6683	881.543	877.641	873.531	869.475	865.486	1355.6	1337.5	1319.7	1302.2	1284.8
x1 = 0.6924	885.505	881.587	877.468	873.41	869.396	1358.9	1340.9	1323.2	1305.8	1288.4
x1 = 0.7544	895.808	891.893	887.746	883.674	879.592	1367.8	1350	1332.3	1315.2	1297.8
x1 = 0.7963	902.873	898.935	894.791	890.73	886.574	1373.9	1356.2	1338.7	1321.6	1304.4
x1 = 0.858	913.335	909.366	905.245	901.206	896.983	1383.2	1365.7	1348.3	1331.5	1314.2
x1 = 0.9079	921.784	917.773	913.7	909.674	905.434	1390.9	1373.6	1356.4	1339.6	1322.3
x1 = 0.9553	929.676	925.674	921.63	917.622	913.46	1398.4	1381.3	1364.2	1347.6	1330.2

CCCCCCOCCOCCO [2-(2-hexyloxyethoxy)ethanol] + CCCCNCCCC
Settings	mass density, 288.15 K [kg/m3]	mass density, 293.15 K [kg/m3]	mass density, 298.15 K [kg/m3]	mass density, 303.15 K [kg/m3]	mass density, 308.15 K [kg/m3]	speed of sound, 288.15 K [m/s]	speed of sound, 293.15 K [m/s]	speed of sound, 298.15 K [m/s]	speed of sound, 303.15 K [m/s]	speed of sound, 308.15 K [m/s]
x1 = 0.0974	787.886	783.751	779.614	775.187	771.079	1301.4	1282.3	1262.9	1243.7	1225.3
x1 = 0.1441	798.114	793.988	789.859	785.667	781.545	1308.1	1289.2	1270.5	1251	1232.2
x1 = 0.1908	808.103	804	799.885	795.785	791.662	1314.8	1296	1277.8	1258.2	1239.2
x1 = 0.253	820.984	816.934	812.825	808.731	804.6	1323.5	1304.8	1287	1267.7	1248.7
x1 = 0.2986	830.092	826.059	821.948	817.838	813.671	1329.8	1311.2	1293.6	1274.5	1255.5
x1 = 0.3606	842	837.97	833.834	829.692	825.52	1338	1319.7	1302.1	1283.4	1264.8
x1 = 0.4018	849.578	845.585	841.423	837.274	833.078	1343.4	1325.2	1307.6	1289.3	1270.9
x1 = 0.4584	859.635	855.602	851.46	847.291	843.095	1350.4	1332.6	1315	1297	1279.1
x1 = 0.5091	868.247	864.218	860.074	855.914	851.724	1356.7	1339	1321.3	1303.8	1286.2
x1 = 0.5435	873.936	869.891	865.751	861.602	857.401	1360.8	1343.2	1325.7	1308.2	1290.8
x1 = 0.587	880.891	876.847	872.72	868.58	864.406	1365.8	1348.4	1330.9	1313.6	1296.5
x1 = 0.6097	884.459	880.409	876.278	872.165	867.972	1368.4	1351	1333.6	1316.4	1299.4
x1 = 0.6572	891.716	887.648	883.547	879.461	875.302	1373.6	1356.4	1339	1322	1305
x1 = 0.7023	898.412	894.343	890.259	886.201	882.052	1378.3	1361.3	1344.1	1327	1310.1
x1 = 0.7451	904.586	900.53	896.459	892.397	888.281	1382.7	1365.7	1348.6	1331.6	1314.5
x1 = 0.8144	914.195	910.151	906.103	902.062	897.98	1389.4	1372.4	1355.5	1338.5	1320.9
x1 = 0.8675	921.188	917.168	913.137	909.095	905.045	1394.2	1377.2	1360.3	1343.3	1325
x1 = 0.9083	926.329	922.317	918.3	914.27	910.231	1397.7	1380.6	1363.7	1346.8	1327.7
x1 = 0.9414	930.322	926.329	922.323	918.281	914.269	1400.4	1383.2	1366.2	1349.3	1329.5
